From PMC9694048 (Pharmaceutics, 2022)
In brackets after ≈: the same amount, converted by molar mass. Structures can show the parent of a compound that is named as a salt. Where two headings read alike, the source gives them in different places. Where a SMILES comes first, the peptide text is derived from it. [ ]: non-standard residue; d: D form.

Experiments:
S. aureus/MRSA = experiment: MIC by broth microdilution; type: cell-based; details: 35 °C, 24 h, duplicates
Procedure: The minimum inhibitory concentrations (MIC) of cationic peptides were determined using the broth microdilution method in a 96-well microtiter plate (Cellstar, Greiner Bio-One, Austria). The inoculum was prepared by suspending overnight grown isolated colonies selected from a Tryptic Soy Agar (TSA) plate in water for injection. The concentration of the inoculum suspension was adjusted to match that of the 0.5 McFarland’s standard (10^8 CFU/mL) and further diluted 150-fold by adding 50 μL of suspension into 7.5 mL of Mueller−Hinton broth to obtain an inoculum of 10^5 to 10^6 CFU/mL. Lyophilized peptide obtained from the manufacturer was dissolved in water and adjusted to a final concentration of 0.5 to 256 μg/mL in twofold serial dilutions. A total of 100 μL of the solution was then mixed with an equal volume of bacterial inoculum prepared before in 96-well plates. The plates were then incubated at 35 °C for 24 h, and the optical density at 600 nm (OD600) was determined using a TECAN microplate reader.

WERI-Rb1 cells [1] = experiment: Trypan blue viability assay; type: cell-based; details: WERI-Rb1, 48 h treatment; for cell death at a high dose: high dose (dose not specified); for cell death at a low dose: low dose (dose not specified)
Procedure: WERI-Rb1 cells (1 × 10^5) were treated with increasing concentrations (7.7 µM, 36.25 µM, 72.5 µM, 145 µM, or 290 µM) of a panel of six HC peptides (HC1, HC2, HC3, HC4, HC5, and HC6). Nocodazole (10 µM) treatment was used as a positive control for the study, with untreated cells as the negative control. All treatments were performed at 37 °C in a 90% humidified incubator with 5% CO2 for 48 h. After 48 h post-treatment, cells were stained with 0.4% trypan blue (cat#15250061, Invitrogen, Waltham, MA, USA) and the number of live and dead cells for each time point was estimated using the hemocytometer cell counting protocol. The percentage of cell viability was calculated by dividing the live cell count by the total cell count.

WERI-Rb1 cells [2] = experiment: MTS cell viability assay; type: cell-based
Procedure: (§1) WERI-Rb1 and ARPE-19 cells were seeded at a concentration of 2 × 10^3 cells/well in a 96-well plate and cultured at 37 °C in a humidified 5% CO2 incubator. After seeding the cells, they were treated with various concentrations of CAPs and further incubated for 48 h at 37 °C. Cell viability was assessed after 48 h using the Cell-Titer 96® Aqueous One Solution Cell Proliferation Assay (cat#G3582, Promega, WI, USA) according to the manufacturer’s protocol and described earlier. Briefly, 10 µL of MTS reagent was added to each well and the cells were incubated at 37 °C for 2 h before the experiment end time points. Percentage cell viability was calculated from the absorbance measured at 490 nm using a TECAN microplate reader.

WERI-Rb1 cells [3] = experiment: Western blot of DNA damage markers; type: cell-based; details: IC50 dose; for phosphorylation of ATM and CHK2 (immunoblot): 48-h treatment, Western blot (Figure 4b); for γH2A.X phosphorylation at Ser139 (immunoblot): 48 h, Western blot (Figure 4a)
Procedure: WERI-Rb1 cells were seeded in 6-well cell culture plates (1 × 10^6 cells/well), incubated at 37 °C in a humidified 5% CO2 incubator, and were treated with IC50 doses of topotecan, HC3. or HC5. After 48 h, cells were lysed in RIPA buffer (20 mM Tris pH 8.0, 0.1% SDS, 150 mM NaCl, 0.08% sodium deoxycholate, 1% NP40 supplemented with one tablet of protease inhibitor and phosphatase inhibitor (Roche). 20 µg of total protein was loaded per lane and separated by SDS-PAGE. The separated proteins on the gel were transferred to PVDF membrane and were probed for antibodies against γH2A.X (1:1000, cat#2595, Cell Signaling Technology, Danvers, MA, USA), p-γH2A.X (Ser139) (1:1000, cat#2577, Cell Signaling Technology, Danvers, MA, USA), p-BCL2(Ser70) (1:1000, cat#2827, Cell Signaling Technology, Danvers, MA, USA), BCL2 (1:1000, cat#2872, Cell Signaling Technology, Danvers, MA, USA), Bax (1:1000, cat#2772, Cell Signaling Technology, Danvers, MA, USA), p-ATM(Ser1981) (1:1000, cat#5883, Cell Signaling Technology, Danvers, MA, USA), ATM (1:1000, cat#2873, Cell Signaling Technology, Danvers, MA, USA), p-Chk2(Thr68) (1:1000, cat#2661, Cell Signaling Technology, Danvers, MA, USA), Chk2 ([…], cat#2662, Cell Signaling Technology, Danvers, MA, USA), p-p53(Ser15) (1:1000, cat#9284, Cell Signaling Technology, Danvers, MA, USA), p-p53(Ser46) (1:1000, cat#2521, Cell Signaling Technology, Danvers, MA, USA), p53 (1:1000, cat#2524, Cell Signaling Technology, Danvers, MA, USA), Cleaved caspase 9 (1:1000, cat#9505, Cell Signaling Technology, Danvers, MA, USA), Cleaved caspase 3 (1:1000, cat#9661, Cell Signaling Technology, Danvers, MA, USA), Cleaved PARP (1:1000, cat#5625, Cell Signaling Technology, Danvers, MA, USA), and GAPDH (1:2000, cat#ab9485, Abcam, Cambridge, UK). Proteins of interest were detected with HRP-conjugated sheep anti-mouse (1:5000, cat#7076, Cell Signaling Technology, Danvers, MA, USA) or anti-rabbit IgG antibody (1:5000, cat#7074, Cell Signaling Technology, Danvers, MA, USA) and visualized with the Clarity ECL Western blotting substrate (Bio-Rad, Hercules, CA, USA) according to the provided protocol.

WERI-Rb1 tumor spheroids = experiment: Tumor spheroid area by high content imaging; type: cell-based; details: 7-day-old WERI-Rb1 spheroids, IC50 dose, 48 h, n = 9 per condition
Procedure: Spheroids were developed using the hanging drop protocol on low attachment U-bottom 96-well plate. The single cell suspension of 5 × 10^2 WERI-Rb1 cells in 100 µL medium was loaded in each well of a 96-well plate. The cells were cultured at 37 °C in a 90% humidified incubator with 5% CO2 for 7 days for the generation of tight and regular tumor spheroids. Seven-day-old spheroids (n = 9 per condition) were treated with 100 μL of freshly prepared medium containing an IC50 dose of topotecan (Figure S1), HC3, or HC5. The cultures were then incubated for 48 h prior to high content analysis (HCA) and immunofluorescence (IF) assays.
WERI-Rb1 cells were stained with orange plasma membrane stain as per the manufacturer’s protocol (Cell Mask Orange Plasma membrane stain; cat#C10045, Invitrogen, Waltham, MA, USA) prior to the development of spheroids. The stained WERI-Rb1 cells were used for spheroid formation using the hanging drop protocol on a low attachment U-bottom 96-well plate. […] The images were acquired using the automated high-content imaging system, IN Cell Analyzer 6000 (GE Healthcare, Singapore), equipped with a laser-based confocal platform having a 2× objective. The automatically captured single well imaging of spheroids and a Z stack of 11 images were separated by 50 µm total 500 µm depth for spheroids, using maximum intensity projection (MIP) acquisition and single-channel filter at 567 nm. To reduce data storage and image analysis time, we analyzed 2D projection images of tumor spheroids for multiple treatment conditions. Spheroid area and shape were automatically quantified by HCA using the IN-Cell 6000 software (GE Healthcare, Singapore). The mean area (µm^2) of each spheroid was calculated to elucidate the drug/peptide response.

ARPE-19 cells [4] = experiment: Western blot of apoptotic markers in cytoplasmic and mitochondrial fractions; type: cell-based, Human; details: ARPE-19, 48-h exposure, cytoplasmic and mitochondrial fractions (Figure 5c)
ARPE-19 cells [5] = experiment: MTS cell viability assay; type: cell-based, Human; details: ARPE-19, MTS, 48 h (Figure 2c)
Procedure: as §1

[6] = WERI-Rb1 cells, 48 h, dose used for spheroid treatment

SMILES	cell death at a high dose (WERI-Rb1 cells [1]) [%]	cell death at a low dose (WERI-Rb1 cells [1]) [%]	IC50 (WERI-Rb1 cells [2]; [6]) [µL/mL]	phosphorylation of ATM and CHK2 (immunoblot) (WERI-Rb1 cells [3])	γH2A.X phosphorylation at Ser139 (immunoblot) (WERI-Rb1 cells [3])	effect on Rb spheroid size (WERI-Rb1 tumor spheroids)	apoptotic events in ARPE-19 cells (Bax, cytochrome c) (ARPE-19 cells [4])	cytotoxic effect on non-malignant ARPE-19 cells (ARPE-19 cells [5])	further results
CCCCCCCCCC(=O)N[C@@H](Cc1c[nH]c2ccccc12)C(=O)N[C@H](CC(N)=O)C(=O)N[C@@H](CC(=O)O)C(=O)N[C@@H]1C(=O)NCC(=O)N[C@@H](CCCN)C(=O)N[C@@H](CC(=O)O)C(=O)N[C@H](C)C(=O)N[C@@H](CC(=O)O)C(=O)NCC(=O)N[C@H](CO)C(=O)N[C@@H]([C@H](C)CC(=O)O)C(=O)N[C@@H](CC(=O)c2ccccc2N)C(=O)O[C@@H]1C [Daptomycin]	–	–	–	–	–	–	–	–	Minimum inhibitory concentration (S. aureus/MRSA; strain MRSA 9808R, Mueller-Hinton broth): 0.31 µM (≈ 0.502 µg/mL); Minimum inhibitory concentration (S. aureus/MRSA; strain MRSA 21595, Mueller-Hinton broth): 0.31 µM (≈ 0.502 µg/mL); Minimum inhibitory concentration (S. aureus/MRSA; strain MRSA 42412, Mueller-Hinton broth): 0.31 µM (≈ 0.502 µg/mL); Minimum inhibitory concentration (S. aureus/MRSA; strain MRSA 43300, Mueller-Hinton broth): 0.31 µM (≈ 0.502 µg/mL); Minimum inhibitory concentration (S. aureus/MRSA; strain MRSA 68004, Mueller-Hinton broth): 0.31 µM (≈ 0.502 µg/mL); Minimum inhibitory concentration (S. aureus/MRSA; strain MRSA 700699, Mueller-Hinton broth): 0.62 µM (≈ 1 µg/mL); Minimum inhibitory concentration (S. aureus/MRSA; strain MRSA +B32:L426506, Mueller-Hinton broth): 0.31 µM (≈ 0.502 µg/mL); Minimum inhibitory concentration (S. aureus/MRSA; strain MRSA BAA38, Mueller-Hinton broth): 4.94 µM (≈ 8.01 µg/mL); Minimum inhibitory concentration (S. aureus/MRSA; strain MRSA DB57964/04, Mueller-Hinton broth): 0.31 µM (≈ 0.502 µg/mL); Minimum inhibitory concentration (S. aureus/MRSA; strain S. aureus 4299, Mueller-Hinton broth): 2.47 µM (≈ 4 µg/mL); Minimum inhibitory concentration (S. aureus/MRSA; strain S. aureus 4400R, Mueller-Hinton broth): 0.31 µM (≈ 0.502 µg/mL); Minimum inhibitory concentration (S. aureus/MRSA; strain S. aureus 4583R, Mueller-Hinton broth): 0.31 µM (≈ 0.502 µg/mL); Minimum inhibitory concentration (S. aureus/MRSA; strain S. aureus 6538, Mueller-Hinton broth): 0.15 µM (≈ 0.243 µg/mL); Minimum inhibitory concentration (S. aureus/MRSA; strain S. aureus 29213, Mueller-Hinton broth): 0.15 µM (≈ 0.243 µg/mL); Minimum inhibitory concentration (S. aureus/MRSA; strain S. aureus 29737, Mueller-Hinton broth): 0.31 µM (≈ 0.502 µg/mL)
N=C(N)NCCC[C@@H](NC(=O)[C@H](CCCCN)NC(=O)[C@@H](CCCNC(=N)N)NC(=O)[C@H](CCCCN)NC(=O)[C@@H](CCCNC(=N)N)NC(=O)[C@H](CCCCN)NC(=O)[C@@H](CCCNC(=N)N)NC(=O)[C@H](CCCCN)NC(=O)[C@@H](CCCNC(=N)N)NC(=O)[C@H](CCCCN)NC(=O)[C@@H](CCCNC(=N)N)NC(=O)[C@@H](N)CCCCN)C(=O)O [HC3] (H-K[dR]K[dR]K[dR]K[dR]K[dR]K[dR]-OH; N-terminus and C-terminus assumed)	60	40	77.2	induced phosphorylation of ATM (ataxia-telangiectasia mutated) at Ser1981 and CHK2 at Thr68	did not show any activation of γH2A.X(Ser139)	effectively shrunk and decreased the Rb spheroid size	did not trigger any apoptotic events	did not display any cytotoxic effect	–
N=C(N)NCCC[C@H](NC(=O)[C@@H](CCCCN)NC(=O)[C@H](CCCNC(=N)N)NC(=O)[C@@H](CCCCN)NC(=O)[C@H](CCCNC(=N)N)NC(=O)[C@@H](CCCCN)NC(=O)[C@H](CCCNC(=N)N)NC(=O)[C@@H](CCCCN)NC(=O)[C@H](CCCNC(=N)N)NC(=O)[C@@H](CCCCN)NC(=O)[C@H](CCCNC(=N)N)NC(=O)[C@H](N)CCCCN)C(=O)O [HC5] (H-[dK]R[dK]R[dK]R[dK]R[dK]R[dK]R-OH; N-terminus and C-terminus assumed)	60	40	65.2	induced phosphorylation of ATM (ataxia-telangiectasia mutated) at Ser1981 and CHK2 at Thr68	did not show any activation of γH2A.X(Ser139)	effectively shrunk and decreased the Rb spheroid size	did not trigger any apoptotic events	did not display any cytotoxic effect	–
COc1cccc2c1C(=O)c1c(O)c3c(c(O)c1C2=O)C[C@@](O)(C(=O)CO)C[C@@H]3O[C@H]1C[C@H](N)[C@H](O)[C@H](C)O1 [doxorubicin]	–	–	–	–	–	–	–	–	IC50 (WERI-Rb1 cells [2]; WERI-Rb1, MTS, 48 h exposure, (Figure S4), read-out: IC50): 2500 nM
CC[C@@]1(O)C(=O)OCc2c1cc1n(c2=O)Cc2cc3c(CN(C)C)c(O)ccc3nc2-1 [topotecan, Topotecan hydrochloride hydrate]	–	–	–	–	induction of γH2A.X phosphorylation at Ser139	disrupted Rb spheroids	induced Bax expression in the mitochondrial fraction of ARPE-19	–	IC50 (WERI-Rb1 cells [2]; WERI-Rb1, MTS, 48 h exposure, 5 nM to 50 nM (Figure S3), read-out: IC50): 10 nM
